The text below walks through data of US10201516B2 (The Regents of the University of California, priority 2014, dated 2019).

The test system of data set [1] is β-catenin/TCF/LEF transcriptional activity. The experiment in a line: TOPFlash assay in NIH/3T3 cells. It counts as cell-based, mouse. Conditions: for β-catenin/TCF/LEF transcriptional activity (TOPFlash): Ras^V12-transformed NIH/3T3 cells, 0.5 μM for 12 hours (FIG. 10E). As to the method: (§1) Tankyrase inhibitors, JW55, Cardinogenl, and JW67, were purchased from R&D Systems. The cells were treated with the inhibitors at 0.5 μM for 12 hours for TOPFlash assays. For sphere formation assays, the cells were cultured in complete medium with different Tankyrase inhibitors.
Cells were transfected with TOPFlash (Addgene#12456), FOPFlash (Addgene#12457) or pGL3-NFAT (Addgene#17870) luciferase reporter constructs by using Fugene6 (Roche). 48th hour post-transfection the luciferase activities in cell lysates were measured using Bright-Glo Luciferase Assay System (Promega) according to the manufacturer's instructions.

Another data set concerns NIH/3T3 cells. Nature of the data set: Sphere formation assay in NIH/3T3 cells. It counts as cell-based, mouse. Particulars: for sphere forming efficiency: K-Ras^V12 transformed NIH/3T3 cells (FIG. 10F); for sphere formation: vector control or H-Ras^V12 transformed NIH/3T3 (FIG. 10F). As to the method: as §1
Cells were harvested, counted and seeded into Ultra Low Attachment Culture 96-well plate (Corning Life Science, Catalog number 3261) at 10 or 100 cells per well. The seeded cells and formed spheres were maintained in low serum containing medium with 0.1% FBS or CS. The initiated spheres were observed twice and week. The numbers of formed spheres were counted one month after seeding. The spheres were harvested and re-seeded into 12-well or 24-well plate with complete growth medium at one sphere per well. The re-plated colonies were stained and visualized by 0.05% crystal violet staining (in […]).

The test system of another data set is Fzd8. The experiment in a line: Western blot of Fzd8 expression in NIH/3T3 cells. It counts as cell-based, mouse. Conditions: NIH/3T3-H-Ras^V12 cells (FIG. 3B). The method, then:
(§2) Experimental cells were washed twice in ice-cold PBS and lysed in 1% Triton lysis buffer [25 mmol/L Tris pH 7.5, 150 mmol/L NaCl, 1% Triton X-100, 1 mmol/L EDTA, 1 mmol/L EGTA, 20 mmol/L NaF, 1 mmol/L […], and 1 mmol/L DTT] supplemented with a protease inhibitor cocktail (Roche) and cleared by centrifugation. Protein concentrations were determined by the Bio-Rad Protein Assay (Bio-Rad). Equal amounts of protein extracts were resolved using SDS-PAGE (NuPAGE; Invitrogen), transferred to a nitrocellulose membrane, and immunoblotted with primary antibodies indicated, followed by secondary antibodies labeled with either IRDye800 (Rockland) or Alexa Fluor 680 (Molecular Probes) and were visualized using a LI-COR Odyssey scanner. A complete list of primary antibodies is provided in the Extended Experimental Procedures.
In general terms: A western blot detects proteins with antibodies after separation by electrophoresis.

For the next data set, the system named is CaMKii. The experiment in a line: Western blot of phospho-CaMKii in Ras-transformed NIH/3T3 cells (and human pancreatic cancer cell lines). It counts as cell-based, mouse. Particulars: NIH/3T3-H-Ras^V12 and vector control cells (FIG. 3B). The method, then: as §2
The conditions of data set [2]: PKC activators, literature; cited from earlier work.

In the case of `COc1ccc(S(=O)(=O)N(CCO)c2ccccc2CN(C)C/C=C/c2ccc(Cl)cc2)cc1` [KN-93], the β-catenin transcriptional activity result in data set [1] (NIH/3T3-H-Ras^V12 cells (FIG. 3C)) is “increased β-catenin transcriptional activity”. The “sphere forming efficiency and size of spheroid colonies” value with NIH/3T3 cells (NIH/3T3-H-Ras^V12 cells (FIG. 3D)) was “dramatically enhanced the sphere forming efficiency and the size of spheroid colonies”. In addition, in the data set with Fzd8, the Fzd8 expression entry was “reduced Fzd8 expression”. For the same compound, the “phosphorylation of CaMKii” value in the data set on CaMKii was “reduced phosphorylation of CaMKii”.

For `CCCCCCCCCCCCCC(=O)O[C@@H]1[C@@H](C)[C@@]2(O)[C@@H](C=C(CO)C[C@]3(O)C(=O)C(C)=C[C@@H]23)[C@@H]2C(C)(C)[C@]12OC(C)=O` [PMA, phorbol-12-myristate-13-acetate, reference compound], the tumor promotion result in data set [2] is reported as “tumor promoting”.

As to `O=C1Nc2ccccc2C12OCC1(CO2)COC2(OC1)C(=O)Nc1ccccc12` (centres unmarked) [JW67], the “β-catenin/TCF/LEF transcriptional activity (TOPFlash)” value in data set [1] is “successfully repressed β-catenin/TCF/LEF transcriptional activity”. For the same compound, in the data set on NIH/3T3 cells, the sphere forming efficiency result is “still maintained their sphere forming efficiency” and the sphere formation entry is listed as “inhibited sphere formation”.

For the compound `c1coc(-c2nnc3sc(C4CCCCC4)nn23)c1` [cardionogen1], the “β-catenin/TCF/LEF transcriptional activity (TOPFlash)” value in data set [1] was “successfully repressed β-catenin/TCF/LEF transcriptional activity”. In addition, in the data set with NIH/3T3 cells, the sphere forming efficiency entry is listed as “still maintained their sphere forming efficiency” and the sphere formation result is listed as “inhibited sphere formation”.

As to `COc1ccc(C2(CNC(=O)c3ccc(NC(=O)c4ccco4)cc3)CCOCC2)cc1` [JW55], the “β-catenin/TCF/LEF transcriptional activity (TOPFlash)” value in data set [1] was “successfully repressed β-catenin/TCF/LEF transcriptional activity”. Further, in the data set on NIH/3T3 cells, the sphere forming efficiency entry is given as “still maintained their sphere forming efficiency” and the sphere formation result is “inhibited sphere formation”.
